In US8487130B2, “Menthylcarboxamides and their use as cooling agents” (International Flavors & Fragrances Inc., priority 2009, dated 2013):
Entries after “also recorded” stand apart in the source; their conditions may differ.

Key:
Assay type in all cases: in vivo
[1] = Flavor evaluation, tasted in water; conditions: for flavor evaluation: cooling: 40 ppm in water
[2] = test system: descriptive analysis panel; assay: Chewing gum cooling evaluation by descriptive analysis panel; conditions: gum blended with Structure I
Protocol: The following gum base formulation was prepared: [table] Structure I by itself and in separate mixtures with monomenthyl glutarate, 2-isopropyl-N,2,3-trimethylbutyramid, N-ethyl-p-menthanecarboxamide and menthyl acetoacetate at levels detailed in the Tables below was blended with the gum base in a Sigma mixer. The resultant chewing gum blend was then manufactured into strips 1 inch in width and 0.1 inches in thickness. These strips were cut into lengths of 3 inches each. […] Samples were profiled by a highly trained descriptive analysis panel. The ballot consisted of the following terms: Total impact, total mint, cooling-mouth closed, cooling-breath in, nasal cooling—breath in, throat irritation, bitterness, tongue irritation, numbing. Each attribute was rated at discrete time points including 5 secs, 30 secs, 90 secs, 3 mins, 5 mins, 7 mins, 10 mins, 15 mins, 20 mins, and 30 mins. The following table details the panelist's results for the combination of Structure I with monomenthyl glutarate, 2-isopropyl-N,2,3-trimethylbutyramid, N-ethyl-p-menthanecarboxamide and menthyl acetoacetate at 3 minutes, 8 minutes, 20 minutes and 30 minute, 40 minute and 50 minute intervals. The amounts are listed in weight percent.

[3] = Flavor evaluation, tasted in water; conditions: 40 ppm in water
Text: Flavor Evaluation of Structure I
Flavor evaluation of the (2S,5R)—N-[4-(4-Amino-4-oxobutyl)phenyl]-5-methyl-2-(propan-2-yl)cyclohexanecarboxamide in water at concentration 40 ppm: […]

Question: Which results are given for `CC(C)[C@@H]1CC[C@@H](C)CC1C(=O)Nc1ccc(CC(N)=O)cc1` (stereo partly drawn) [Structure I, (2S,5R)—N-[4-(2-Amino-2-oxoethyl)phenyl]-5-methyl-2-(propan-2-yl)cyclohexanecarboxamide]?
Answer: duration of cooling ([1]; 1 ppm in water): 30 min; flavor properties (cooling) when tasted in water ([1]; 1 ppm in water): clean with slight cooling up front that builds with time to moderate level; flavor properties (cooling) when tasted in water ([1]; 10 ppm in water): moderate throat and mouth cooling that lingers with some bitter notes in background; duration of cooling ([1]; 10 ppm in water, with breath in): 30 min; panelist comment ([2]; Panelist 1, 11:05 (start 11:04)): Bitter, Brown, Sweet, slightly Vanilla; panelist comment ([2]; Panelist 1, 11:06 (start 11:04)): Start to notice cooling; panelist comment ([2]; Panelist 1, 11:08 (start 11:04)): Moderate cooling; panelist comment ([2]; Panelist 1, 11:11 (start 11:04)): Moderate cooling in mouth and now back of the throat; nice on breath in; also recorded: Continued long lasting cooling; panelist comment ([2]; Panelist 1, 11:15 (start 11:04)): Slight cooling moving to the front of the mouth; panelist comment ([2]; Panelist 1, 11:18 (start 11:04)): Stable cooling all over, nice level; panelist comment ([2]; Panelist 1, 11:22 (start 11:04)): Long lasting; panelist comment ([2]; Panelist 2, 11:04 (start)): Very sweet, brown; panelist comment ([2]; Panelist 2, 11:07 (start 11:04)): Started to notice cooling on breath and tip of the tongue; panelist comment ([2]; Panelist 2, 11:09 (start 11:04)): Started to notice on back of throat, continued to build in the rest of the mouth; panelist comment ([2]; Panelist 2, 11:11 (start 11:04)): Cooling consistent throughout mouth, slight irritation on the back of the throat; panelist comment ([2]; Panelist 2, 11:15 (start 11:04)): Cooling level the same; panelist comment ([2]; Panelist 2, 11:24 (start 11:04)): Still getting a good amount of cooling; panelist comment ([2]; Panelist 2, 12:07 (start 11:04)): Cooling is gone; panelist comment ([2]; Panelist 3, 11:07 (start 11:04)): Cooling on the back of the throat; panelist comment ([2]; Panelist 3, 11:14 (start 11:04)): Concentrated on the back of the throat; irritating; panelist comment ([2]; Panelist 3, 11:22 (start 11:04)): Full cooling after 20 min; panelist comment ([2]; Panelist 4, 11:07 (start 11:04)): Cooling perception begins (mild); panelist comment ([2]; Panelist 4, 11:09 (start 11:04)): Cooling pleasant, builds to moderate cooling on the front/tip of tongue; panelist comment ([2]; Panelist 4, 11:11 (start 11:04)): Intensity max reached; panelist comment ([2]; Panelist 4, 11:14 (start 11:04)): Cooling plateau, maintained. Delocalized all over mouth; panelist comment ([2]; Panelist 4, 11:19 (start 11:04)): Remains intense; panelist comment ([2]; Panelist 4, 11:20 (start 11:04)): Moves to throat (mild) very intense on tip of the tongue and center; panelist comment ([2]; Panelist 4, 11:24 (start 11:04)): Still cooling; panelist comment ([2]; Panelist 4, 12:00 (start 11:04)): Cooling remains; panelist comment ([2]; Panelist 4, 12:15 (start 11:04)): Cooling diminished significantly

Question: For `CC(C)[C@@H]1CC[C@@H](C)CC1C(=O)Nc1ccc(CCCC(N)=O)cc1` (stereo partly drawn) [(2S,5R)—N-[4-(4-Amino-4-oxobutyl)phenyl]-5-methyl-2-(propan-2-yl)cyclohexanecarboxamide], which “flavor evaluation: cooling” value ([1]; 30 minutes) is on record?
Answer: Its value is “localized on tip”.

Question: What about the “flavor evaluation: cooling” value ([1]; ~3.5 minutes) of the same molecule?
Answer: The value was “beginning to build”.

Question: What about the “flavor evaluation: onset and character of cooling” value [3] of the same molecule?
Answer: Its value is “Late onset of cooling after expectorating, peppery on tip of tongue and back of throat, cooling on tip, irritating on back of throat—sore throat, cooling building on tip of tongue, peppery in esophagus”.

Question: And the “flavor evaluation: taste” value [3]?
Answer: The value was “Umami! Ribotide-like. Umami upfront”.

Question: What about the “flavor evaluation: cooling” value ([3]; after 20 minutes) of the same molecule?
Answer: The value was “Still going strong after 20 minutes and cooling on gums”.

Question: What about the “flavor evaluation: cooling” value ([3]; ~40 sec) of the same molecule?
Answer: The value was “cooling just beginning, throat irritation, slight numbing on tip of tongue, mouth-watering, mouth coating—all over”.

Question: And the “flavor evaluation: cooling” value ([3]; ~7 minutes)?
Answer: Its value is “continuing to build”.
